Laboratory results taken from ChEMBL document CHEMBL4024706 (Eur J Med Chem, 2017).

Experiments:
[1] = target: Tyrosine-protein kinase BTK (Homo sapiens, UniProt Q06187); experiment: Inhibition of BTK auto-phosphorylation at Y223 in human Pfeiffer cells measured after 4 hrs by chemiluminescent assay
[2] = MRT (0 to t) in Sprague-Dawley rat at 1 mg/kg, iv by LC-MS/MS method; format: ADME, organism-based; details: in vivo
[3] = Elimination half-life in Sprague-Dawley rat at 1 mg/kg, iv by LC-MS/MS method; format: ADME, organism-based; details: in vivo, read-out: beta t1/2 (converted)
[4] = target: Aurora kinase C (Homo sapiens) (UniProt Q9UQB9); experiment: Inhibition of wild-type human full length AURKC (M1 to S275 residues) expressed in bacterial expression system assessed as residual activity at 1 uM by Kinomescan method relative to control
Sequence of Aurora kinase C (Homo sapiens) (Q9UQB9 whole entry, the tested form may be a part): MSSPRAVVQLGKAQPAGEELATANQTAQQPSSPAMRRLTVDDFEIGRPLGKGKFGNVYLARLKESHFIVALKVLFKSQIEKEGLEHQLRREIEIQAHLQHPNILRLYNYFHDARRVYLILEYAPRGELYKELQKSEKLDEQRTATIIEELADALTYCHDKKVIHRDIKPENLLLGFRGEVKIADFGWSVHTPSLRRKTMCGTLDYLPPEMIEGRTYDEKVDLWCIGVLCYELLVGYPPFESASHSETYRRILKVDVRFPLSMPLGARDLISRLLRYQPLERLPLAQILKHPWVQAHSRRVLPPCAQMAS

[5] = target: Bone morphogenetic protein receptor type-1A (Homo sapiens) (UniProt P36894); experiment: Inhibition of wild-type human partial length BMPR1A (Q214 to I532 residues) expressed in bacterial expression system assessed as residual activity at 1 uM by Kinomescan method relative to control
[6] = target: Serine/threonine-protein kinase BRSK1 (Homo sapiens) (UniProt Q8TDC3); experiment: Inhibition of wild-type human partial length BRSK1 (M1 to E754 residues) expressed in bacterial expression system assessed as residual activity at 1 uM by Kinomescan method relative to control
[7] = target: Dual specificity protein kinase CLK3 (Homo sapiens) (UniProt P49761); experiment: Inhibition of wild-type human full length CLK3 (M1 to R490 residues) expressed in bacterial expression system assessed as residual activity at 1 uM by Kinomescan method relative to control
[8] = target: Casein kinase I isoform gamma-3 (Homo sapiens) (UniProt Q9Y6M4); experiment: Inhibition of wild-type human full length CSNK1G3 (M1 to K447 residues) expressed in bacterial expression system assessed as residual activity at 1 uM by Kinomescan method relative to control
[9] = target: Ephrin type-A receptor 1 (Homo sapiens) (UniProt P21709); experiment: Inhibition of wild-type human partial length EPHA1 (V588 to I913 residues) expressed in bacterial expression system assessed as residual activity at 1 uM by Kinomescan method relative to control
[10] = target: Mitogen-activated protein kinase 1 (Homo sapiens) (UniProt P28482); experiment: Inhibition of wild-type human full length ERK2 (M1 to S360 residues) expressed in bacterial expression system assessed as residual activity at 1 uM by Kinomescan method relative to control
[11] = target: Tyrosine-protein kinase Fes/Fps (Homo sapiens) (UniProt P07332); experiment: Inhibition of wild-type human partial length FES (I527 to R822 residues) expressed in bacterial expression system assessed as residual activity at 1 uM by Kinomescan method relative to control
[12] = target: Receptor-type tyrosine-protein kinase FLT3 (Homo sapiens) (UniProt P36888); experiment: Inhibition of wild-type human partial length autoinhibited FLT3 (H564 to Y969 residues) expressed in mammalian expression system assessed as residual activity at 1 uM by Kinomescan method relative to control
[13] = test system: Mast/stem cell growth factor receptor Kit (Homo sapiens), P10721 [A829P]; experiment: Inhibition of human partial length KIT A829P mutant (I571 to D952 residues) expressed in mammalian expression system assessed as residual activity at 1 uM by Kinomescan method relative to control
[14] = target: Cyclin-dependent kinase 16 (Homo sapiens) (UniProt Q00536); experiment: Inhibition of wild-type human partial length PCTK1 (G160 to A474 residues) expressed in mammalian expression system assessed as residual activity at 1 uM by Kinomescan method relative to control
Sequence of Cyclin-dependent kinase 16 (Homo sapiens) (Q00536 whole entry, the tested form may be a part, canonical isoform): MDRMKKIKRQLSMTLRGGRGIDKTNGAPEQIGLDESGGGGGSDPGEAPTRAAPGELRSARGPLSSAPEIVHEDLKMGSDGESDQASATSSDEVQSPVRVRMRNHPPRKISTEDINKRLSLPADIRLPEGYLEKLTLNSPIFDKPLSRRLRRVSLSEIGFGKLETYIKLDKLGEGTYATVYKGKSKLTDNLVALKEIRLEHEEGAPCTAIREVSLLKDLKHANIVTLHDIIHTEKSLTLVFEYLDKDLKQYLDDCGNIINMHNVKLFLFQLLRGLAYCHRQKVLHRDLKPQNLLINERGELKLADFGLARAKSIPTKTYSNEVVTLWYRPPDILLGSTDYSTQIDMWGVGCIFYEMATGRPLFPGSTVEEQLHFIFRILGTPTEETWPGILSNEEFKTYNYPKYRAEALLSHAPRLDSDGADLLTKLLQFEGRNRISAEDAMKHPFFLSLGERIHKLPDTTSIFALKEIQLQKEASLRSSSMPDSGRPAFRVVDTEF

[15] = target: Phosphatidylinositol 4,5-bisphosphate 3-kinase catalytic subunit alpha isoform (Homo sapiens) (UniProt P42336); experiment: Inhibition of wild-type human partial length PIK3CA (R108 to N1068 residues) expressed in mammalian expression system assessed as residual activity at 1 uM by Kinomescan method relative to control
[16] = target: Phosphatidylinositol 5-phosphate 4-kinase type-2 gamma (Homo sapiens) (UniProt Q8TBX8); experiment: Inhibition of wild-type human partial length PIP5K2C (M1 to A421 residues) expressed in mammalian expression system assessed as residual activity at 1 uM by Kinomescan method relative to control
[17] = test system: Proto-oncogene tyrosine-protein kinase receptor Ret (Homo sapiens), P07949 [V804M]; experiment: Inhibition of human partial length RET V804M mutant (E713 to D1014 residues) expressed in bacterial expression system assessed as residual activity at 1 uM by Kinomescan method relative to control
[18] = target: NUAK family SNF1-like kinase 2 (Homo sapiens) (UniProt Q9H093); experiment: Inhibition of wild-type human partial length SNARK (P22 to A333 residues) expressed in mammalian expression system assessed as residual activity at 1 uM by Kinomescan method relative to control
[19] = target: SRSF protein kinase 2 (Homo sapiens) (UniProt P78362); experiment: Inhibition of wild-type human full length SRPK2 (M1 to S686 residues) expressed in bacterial expression system assessed as residual activity at 1 uM by Kinomescan method relative to control
Sequence of SRSF protein kinase 2 (Homo sapiens) (P78362 whole entry, looked up, the tested form may be a part): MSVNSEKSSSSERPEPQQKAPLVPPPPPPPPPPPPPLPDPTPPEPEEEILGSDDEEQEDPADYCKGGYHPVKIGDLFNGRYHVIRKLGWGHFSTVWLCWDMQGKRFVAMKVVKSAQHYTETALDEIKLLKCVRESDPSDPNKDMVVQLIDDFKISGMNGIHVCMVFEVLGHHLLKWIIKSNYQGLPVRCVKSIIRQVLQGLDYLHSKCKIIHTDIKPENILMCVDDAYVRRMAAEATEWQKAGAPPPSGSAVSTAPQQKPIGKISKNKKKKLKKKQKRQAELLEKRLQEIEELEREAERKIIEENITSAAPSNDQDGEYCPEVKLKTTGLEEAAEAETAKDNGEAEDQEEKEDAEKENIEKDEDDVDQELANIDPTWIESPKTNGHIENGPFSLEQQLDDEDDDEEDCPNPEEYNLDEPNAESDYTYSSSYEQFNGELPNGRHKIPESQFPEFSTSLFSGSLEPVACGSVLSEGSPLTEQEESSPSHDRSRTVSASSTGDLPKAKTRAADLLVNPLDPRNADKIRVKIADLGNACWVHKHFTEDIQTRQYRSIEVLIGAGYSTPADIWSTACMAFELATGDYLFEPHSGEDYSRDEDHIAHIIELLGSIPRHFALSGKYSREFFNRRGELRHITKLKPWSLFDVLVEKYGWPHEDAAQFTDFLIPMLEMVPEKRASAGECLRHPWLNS

[20] = target: Serine/threonine-protein kinase TAO2 (Homo sapiens) (UniProt Q9UL54); experiment: Inhibition of wild-type human partial length TAOK2 (M1 to A320 residues) expressed in mammalian expression system assessed as residual activity at 1 uM by Kinomescan method relative to control
Sequence of Serine/threonine-protein kinase TAO2 (Homo sapiens) (Q9UL54 whole entry, the tested form may be a part): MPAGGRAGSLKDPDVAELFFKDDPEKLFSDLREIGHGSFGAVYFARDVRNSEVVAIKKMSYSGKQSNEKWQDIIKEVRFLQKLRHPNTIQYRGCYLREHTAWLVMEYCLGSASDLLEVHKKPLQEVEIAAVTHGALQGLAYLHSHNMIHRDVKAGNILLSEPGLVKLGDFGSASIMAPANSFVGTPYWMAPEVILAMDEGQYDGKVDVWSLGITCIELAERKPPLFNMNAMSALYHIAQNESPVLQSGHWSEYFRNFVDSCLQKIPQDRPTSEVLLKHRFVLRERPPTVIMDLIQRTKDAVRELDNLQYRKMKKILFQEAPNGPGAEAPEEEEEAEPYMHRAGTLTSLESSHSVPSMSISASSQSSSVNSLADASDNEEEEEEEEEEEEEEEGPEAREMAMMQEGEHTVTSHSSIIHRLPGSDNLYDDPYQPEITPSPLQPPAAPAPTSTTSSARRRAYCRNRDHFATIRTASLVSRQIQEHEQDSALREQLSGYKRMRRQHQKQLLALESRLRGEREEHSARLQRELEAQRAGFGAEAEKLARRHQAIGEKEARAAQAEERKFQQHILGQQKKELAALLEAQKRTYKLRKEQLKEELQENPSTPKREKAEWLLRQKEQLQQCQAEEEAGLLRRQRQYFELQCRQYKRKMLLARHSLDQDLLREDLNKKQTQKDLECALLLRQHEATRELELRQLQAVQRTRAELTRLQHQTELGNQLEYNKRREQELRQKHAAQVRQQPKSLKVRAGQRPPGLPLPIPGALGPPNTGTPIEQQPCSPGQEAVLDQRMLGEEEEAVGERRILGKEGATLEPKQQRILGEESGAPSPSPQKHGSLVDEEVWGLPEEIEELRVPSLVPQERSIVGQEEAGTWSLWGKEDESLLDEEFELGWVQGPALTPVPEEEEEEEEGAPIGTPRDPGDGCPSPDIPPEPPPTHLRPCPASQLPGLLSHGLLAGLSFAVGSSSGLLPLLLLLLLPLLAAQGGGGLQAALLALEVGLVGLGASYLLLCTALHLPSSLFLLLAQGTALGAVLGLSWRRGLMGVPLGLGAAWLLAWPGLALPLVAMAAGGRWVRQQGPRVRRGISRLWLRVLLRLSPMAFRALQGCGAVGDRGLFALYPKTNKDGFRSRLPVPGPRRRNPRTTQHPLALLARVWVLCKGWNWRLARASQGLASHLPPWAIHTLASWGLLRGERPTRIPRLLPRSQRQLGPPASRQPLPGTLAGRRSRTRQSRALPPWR

[21] = target: Serine/threonine-protein kinase TAO3 (Homo sapiens) (UniProt Q9H2K8); experiment: Inhibition of wild-type human partial length TAOK3 (M1 to T316 residues) expressed in mammalian expression system assessed as residual activity at 1 uM by Kinomescan method relative to control
[22] = target: Serine/threonine-protein kinase ULK1 (Homo sapiens) (UniProt O75385); experiment: Inhibition of wild-type human partial length ULK1 (M1 to T309 residues) expressed in mammalian expression system assessed as residual activity at 1 uM by Kinomescan method relative to control
Sequence of Serine/threonine-protein kinase ULK1 (Homo sapiens) (O75385 whole entry, the tested form may be a part): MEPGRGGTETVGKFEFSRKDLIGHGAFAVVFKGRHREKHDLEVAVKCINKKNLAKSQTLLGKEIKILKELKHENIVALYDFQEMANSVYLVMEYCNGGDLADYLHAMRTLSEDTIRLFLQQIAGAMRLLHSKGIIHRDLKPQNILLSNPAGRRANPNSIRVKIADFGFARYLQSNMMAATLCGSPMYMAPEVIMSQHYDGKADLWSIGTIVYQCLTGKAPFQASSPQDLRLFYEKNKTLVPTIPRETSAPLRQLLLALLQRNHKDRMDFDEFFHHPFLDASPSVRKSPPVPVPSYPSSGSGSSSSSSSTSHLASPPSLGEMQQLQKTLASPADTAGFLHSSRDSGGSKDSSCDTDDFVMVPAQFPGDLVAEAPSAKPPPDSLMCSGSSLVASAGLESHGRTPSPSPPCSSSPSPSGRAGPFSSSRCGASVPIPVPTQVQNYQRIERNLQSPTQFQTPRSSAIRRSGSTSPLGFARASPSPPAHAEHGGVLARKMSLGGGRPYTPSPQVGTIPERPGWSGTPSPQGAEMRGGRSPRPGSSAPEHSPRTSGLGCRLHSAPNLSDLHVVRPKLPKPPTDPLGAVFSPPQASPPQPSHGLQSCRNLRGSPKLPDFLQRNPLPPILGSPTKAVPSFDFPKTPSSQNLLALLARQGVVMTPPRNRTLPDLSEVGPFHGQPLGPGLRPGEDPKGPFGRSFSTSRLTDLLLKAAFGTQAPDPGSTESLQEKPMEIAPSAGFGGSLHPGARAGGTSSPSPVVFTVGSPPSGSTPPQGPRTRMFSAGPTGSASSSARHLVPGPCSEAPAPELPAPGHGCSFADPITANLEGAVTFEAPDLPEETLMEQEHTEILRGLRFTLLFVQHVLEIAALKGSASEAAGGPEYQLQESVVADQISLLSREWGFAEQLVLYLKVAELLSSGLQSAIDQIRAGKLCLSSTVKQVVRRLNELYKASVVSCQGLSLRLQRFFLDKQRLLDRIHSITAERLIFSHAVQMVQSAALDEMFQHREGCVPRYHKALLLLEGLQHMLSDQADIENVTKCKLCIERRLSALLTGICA

[23] = target: Serine/threonine-protein kinase ULK3 (Homo sapiens) (UniProt Q6PHR2); experiment: Inhibition of wild-type human partial length ULK3 (M1 to Q290 residues) expressed in mammalian expression system assessed as residual activity at 1 uM by Kinomescan method relative to control
[24] = target: Serine/threonine-protein kinase VRK2 (Homo sapiens) (UniProt Q86Y07); experiment: Inhibition of wild-type human partial length VRK2 (M1 to T336 residues) expressed in mammalian expression system assessed as residual activity at 1 uM by Kinomescan method relative to control
Sequence of Serine/threonine-protein kinase VRK2 (Homo sapiens) (Q86Y07 whole entry, the tested form may be a part): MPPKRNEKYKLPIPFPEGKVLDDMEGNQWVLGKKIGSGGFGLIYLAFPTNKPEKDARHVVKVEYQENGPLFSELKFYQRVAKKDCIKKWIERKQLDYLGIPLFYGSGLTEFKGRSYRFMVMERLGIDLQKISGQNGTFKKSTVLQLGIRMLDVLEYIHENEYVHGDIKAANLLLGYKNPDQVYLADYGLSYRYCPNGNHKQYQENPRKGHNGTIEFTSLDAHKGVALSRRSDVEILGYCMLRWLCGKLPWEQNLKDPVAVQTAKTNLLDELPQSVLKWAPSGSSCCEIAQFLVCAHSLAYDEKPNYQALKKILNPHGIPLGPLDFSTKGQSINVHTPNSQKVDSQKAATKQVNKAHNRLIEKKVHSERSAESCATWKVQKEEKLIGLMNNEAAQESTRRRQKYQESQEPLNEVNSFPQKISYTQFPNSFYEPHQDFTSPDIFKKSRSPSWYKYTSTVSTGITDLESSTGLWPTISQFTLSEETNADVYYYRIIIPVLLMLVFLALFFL

[25] = target: Serine/threonine-protein kinase WNK4 (Homo sapiens) (UniProt Q96J92); experiment: Inhibition of wild-type human partial length WNK4 (A31 to D461 residues) expressed in mammalian expression system assessed as residual activity at 1 uM by Kinomescan method relative to control
[26] = target: Tyrosine-protein kinase Yes (Homo sapiens) (UniProt P07947); experiment: Inhibition of wild-type human partial length YES (T257 to L543 residues) expressed in bacterial expression system assessed as residual activity at 1 uM by Kinomescan method relative to control

Sequence of Tyrosine-protein kinase BTK (Q06187 whole entry): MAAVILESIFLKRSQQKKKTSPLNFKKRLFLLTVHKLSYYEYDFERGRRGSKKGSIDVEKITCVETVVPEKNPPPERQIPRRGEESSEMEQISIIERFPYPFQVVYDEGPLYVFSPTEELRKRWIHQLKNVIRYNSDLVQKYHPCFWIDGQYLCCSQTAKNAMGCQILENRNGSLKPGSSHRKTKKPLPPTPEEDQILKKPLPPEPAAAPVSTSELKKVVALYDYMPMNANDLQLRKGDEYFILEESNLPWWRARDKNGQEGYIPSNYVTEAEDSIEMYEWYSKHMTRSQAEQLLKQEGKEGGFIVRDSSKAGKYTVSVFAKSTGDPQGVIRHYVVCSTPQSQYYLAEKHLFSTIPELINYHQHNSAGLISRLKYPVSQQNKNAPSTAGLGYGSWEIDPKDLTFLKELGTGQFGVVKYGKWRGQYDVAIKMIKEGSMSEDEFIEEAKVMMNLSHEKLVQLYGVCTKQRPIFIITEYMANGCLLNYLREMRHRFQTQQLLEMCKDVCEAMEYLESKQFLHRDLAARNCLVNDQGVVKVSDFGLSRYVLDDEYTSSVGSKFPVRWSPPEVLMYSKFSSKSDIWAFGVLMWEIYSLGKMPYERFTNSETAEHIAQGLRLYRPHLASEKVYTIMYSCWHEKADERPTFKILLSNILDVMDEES

C=CC(=O)Nc1cc(Nc2cc(-c3cccc(NC(=O)c4ccc(C(C)(C)C)cc4)c3C)cn(C)c2=O)ccc1C(=O)N1CCOCC1
EC50 [1]: < 30 nM | MRT last [2]: 15.6 min | half-life [3]: 13.8 min | Activity [4]: 100% | Activity [5]: 98% | Activity [6]: 100% | Activity [7]: 98% | Activity [8]: 90% | Activity [9]: 100% | Activity [10]: 91% | Activity [11]: 84% | Activity [12]: 100% | Activity [13]: 93% | Activity [14]: 99% | Activity [15]: 100% | Activity [16]: 97% | Activity [17]: 96% | Activity [18]: 87% | Activity [19]: 94% | Activity [20]: 89% | Activity [21]: 94% | Activity [22]: 100% | Activity [23]: 99% | Activity [24]: 100% | Activity [25]: 100% | Activity [26]: 93%
